According to patent US9464326B2, “Total and phosphorylated IL-1 receptor-associated kinase-1 and IL-1 receptor-associated kinase-4 as a biomarker for cancer progression and chemotherapy resistance” (University of Maryland, Baltimore, priority 2012, dated 2016):

How the values were obtained:
[1] = system: CCRF-CEM; test: Proliferation (3H-thymidine) of CCRF-CEM; format: cell-based, human; settings: 3H-thymidine uptake, 72 h
Text: (§1) CCRF-CEM, CEM/C1, CEM/C2, CEM-C7, Jurkat, Loucy, Molt-4, HSB-2, SUP-T1, Hut 78, HH, Hut 102, MO, and H9 T-leukemia and T-lymphoma cell lines were purchased from the American Type Culture Collection (Manassas, Va., USA). All of the cell lines were initially expanded and cryopreserved within one month of receipt. Cells were typically used for 6 months at which time a fresh vial of cryopreserved cells was used. Total T cells from healthy donors were isolated via negative selection followed by positive selection using a CD3+ selection kit (Invitrogen, Carlsbad, Calif.). T cells were isolated from patients with T-ALL bone marrow or peripheral blood samples containing more than 70% leukemia cells using a CD2+ isolation kit (STEMCELL Technologies, Vancouver, Canada). All tissues were collected under institutional IRB-approved protocols and all participants gave written informed assent/consent. For in vitro experiments, T-ALL cells were cultured in AIM-V medium supplemented with 20% human AB serum in the presence of recombinant human stem cell factor (50 ng/mL; Amgen, Thousand Oaks, Calif.), insulin (20 nM; Sigma-Aldrich, St Louis, Mo., USA) and IL-7 (50 ng/mL; R&D Systems, Minneapolis, Minn., USA). In other experiments, protein lysate was collected using the Full Moon Biosystems (Sunnyvale, Calif., USA) buffer prior to protein examination by western blot or protein array.
(§2) Cells were cultured in a 96-well plate (Corning Costar, Corning, N.Y., USA) with various concentrations of TLR ligands 1-9, starting at 10 μg/ml, in a final volume of 200 ul. TLR ligands were diluted 2-fold. Cell lines (25-40×10^3/well) were cultured for 54 hours, whereas fresh patient-derived T-ALL cells (200×10^3/well) were cultured for 30 hours prior to adding [^3H]-thymidine for 18 hours. After this time point, cells were harvested with a Packard Filter-Mate-96 cell harvester (Perkin Elmer, Waltham, Mass., USA) and counted on Packard Top Count-NXT (Perkin Elmer, Waltham, Mass., USA). Results were expressed as average counts per minute (cpm). In some experiments CCRF-CEM cells were pre-treated with TLR1-TLR2 ligand (Pam3CysK4; 2.5 ug/ml) for 48 hrs, washed, and then cultured in the presence of varying concentrations of FBS. Forty-eight hours later, proliferation (±SD) was determined by ^3H-thymidine incorporation. Alternatively, apoptosis was measured by flow cytometry after staining cells with Annexin-V (BD Pharmingen, San Diego, Calif., USA) and propidium iodide (Sigma). Cell number was counted under microscopy by staining cells with trypan blue.
(§3) The following TLR ligands were purchased from Invivogen (San Diego, Calif., USA): tripalmitoyl-S-(bis(palmitoyloxy)propyl)-Cys-Ser-(Lys)3-Lys (TLR1-2); Poly I:C (TLR3); ultrapure S. Minnesota Lipopolysaccharide (TLR4); S. typhimurium flagellin (TLR5); FSL-1 (TLR2/6); Imiquimod (TLR7); ssRNA40/Lyovec (TLR8); CpG-ODN 2006 (TLR9).

[2] = system: Hut-78; test: Proliferation (3H-thymidine) of Hut-78; format: cell-based, human; settings: 3H-thymidine uptake, 72 h
Text: as §1, with “In other experiments, protein lysate was collected using the Full Moon Biosystems (Sunnyvale, Calif., USA) buffer prior to protein examination by western blot or protein array.” left out
(§4) Cells were cultured in a 96-well plate (Corning Costar, Corning, N.Y., USA) with various concentrations of TLR ligands 1-9, starting at 10 μg/ml, in a final volume of 200 ul. […] After this time point, cells were harvested with a Packard Filter-Mate-96 cell harvester (Perkin Elmer, Waltham, Mass., USA) and counted on Packard Top Count-NXT (Perkin Elmer, Waltham, Mass., USA). Results were expressed as average counts per minute (cpm). […] Forty-eight hours later, proliferation (±SD) was determined by ^3H-thymidine incorporation. Alternatively, apoptosis was measured by flow cytometry after staining cells with Annexin-V (BD Pharmingen, San Diego, Calif., USA) and propidium iodide (Sigma). Cell number was counted under microscopy by staining cells with trypan blue. […]

[3] = system: SupT1; test: Proliferation (3H-thymidine) of SupT1; format: cell-based, human; settings: SupT1
Text: as §1, §2, §3

[4] = system: MO; test: Proliferation (3H-thymidine) of MO; format: cell-based, human; settings: 3H-thymidine uptake, 72 h
Text: as §1, with “In other experiments, protein lysate was collected using the Full Moon Biosystems (Sunnyvale, Calif., USA) buffer prior to protein examination by western blot or protein array.” left out
as §4

[5] = system: HH; test: Proliferation (3H-thymidine) of HH; format: cell-based, human; settings: 3H-thymidine uptake, 72 h
Text: as §1, with “In other experiments, protein lysate was collected using the Full Moon Biosystems (Sunnyvale, Calif., USA) buffer prior to protein examination by western blot or protein array.” left out
as §4

[6] = system: CEM-C2; test: Proliferation (3H-thymidine) of CEM-C2; format: cell-based, human; settings: 3H-thymidine uptake, 72 h
Text: as §1
as §2, with “blue. […]” for “blue.”

[7] = system: CEM-C1; test: Proliferation (3H-thymidine) of CEM-C1; format: cell-based, human; settings: 3H-thymidine uptake, 72 h
Text: as §1
as §2, with “blue. […]” for “blue.”

[8] = system: CEM-C7; test: Proliferation (3H-thymidine) of CEM-C7; format: cell-based, human; settings: 3H-thymidine uptake, 72 h
Text: as §1, §2, §3

[9] = system: Molt-4; test: Proliferation (3H-thymidine) of Molt-4; format: cell-based, human; settings: 3H-thymidine uptake, 72 h
Text: as §1, with “In other experiments, protein lysate was collected using the Full Moon Biosystems (Sunnyvale, Calif., USA) buffer prior to protein examination by western blot or protein array.” left out
as §4

[10] = system: HSB-2; test: Proliferation (3H-thymidine) of HSB-2; format: cell-based, human
Text: as §1, §2, §3

[11] = system: Jurkat; test: Proliferation (3H-thymidine) of Jurkat; format: cell-based, human
Text: as §1
as §2, with “blue. […]” for “blue.”

[12] = system: stage IA cutaneous T-lymphoma; settings: topical cream containing 5% Imiquimod; cited from earlier work
[13] = system: Loucy; test: Proliferation (3H-thymidine) of Loucy; format: cell-based, human; settings: 3H-thymidine uptake, 72 h
Text: as §1
as §2, with “blue. […]” for “blue.”

[14] = system: Primary T-cells Activated; test: Proliferation (3H-thymidine) of activated primary T-cells; format: cell-based, human; settings: Primary T-cells, Activated
Text: as §1, §2, §3

[15] = system: Primary T-cells Non-Act; test: Proliferation (3H-thymidine) of non-activated primary T-cells; format: cell-based, human; settings: 3H-thymidine uptake, 72 h
Text: as §1, with “In other experiments, protein lysate was collected using the Full Moon Biosystems (Sunnyvale, Calif., USA) buffer prior to protein examination by western blot or protein array.” left out
as §4

[16] = system: Hut 102; test: Proliferation (3H-thymidine) of Hut 102; format: cell-based, human; settings: 3H-thymidine uptake, 72 h
Text: as §1, with “In other experiments, protein lysate was collected using the Full Moon Biosystems (Sunnyvale, Calif., USA) buffer prior to protein examination by western blot or protein array.” left out
as §4

[17] = system: H9; test: Proliferation (3H-thymidine) of H9; format: cell-based, human; settings: H9; 3H-thymidine uptake, 72 h
Text: as §1, §2, §3

CC(C)Cn1cnc2c(N)nc3ccccc3c21 [Imiquimod]
Proliferative effects of TLR ligands [1]: ∘ | Proliferative effects of TLR ligands [2]: ∘ | Proliferative effects of TLR ligands ([3]; 3H-thymidine uptake, 72 h): − (reduced proliferation) | TLR ligand concentration in parentheses below the symbol ([3]; no unit in table (μg/ml)): (0.6) | Proliferative effects of TLR ligands [4]: ∘ | Proliferative effects of TLR ligands [5]: ∘ | Proliferative effects of TLR ligands [6]: ∘ | Proliferative effects of TLR ligands [7]: ∘ | Proliferative effects of TLR ligands [8]: ∘ | Proliferative effects of TLR ligands [9]: ∘ | Proliferative effects of TLR ligands ([10]; 3H-thymidine uptake, 72 h): − (reduced proliferation) | TLR ligand concentration in parentheses below the symbol ([10]; no unit in table (μg/ml)): (1.2) | Proliferative effects of TLR ligands ([11]; 3H-thymidine uptake, 72 h): − (reduced proliferation) | TLR ligand concentration in parentheses below the symbol ([11]; no unit in table (μg/ml)): (10) | treatment outcome [12]: successfully treated | Proliferative effects of TLR ligands [13]: ∘ | Proliferative effects of TLR ligands ([14]; 3H-thymidine uptake, 72 h): − (reduced proliferation) | TLR ligand concentration in parentheses below the symbol ([14]; no unit in table (μg/ml)): (5) | Proliferative effects of TLR ligands [15]: ∘ | Proliferative effects of TLR ligands [16]: ∘ | Proliferative effects of TLR ligands [17]: ∘
